Consider 4 compounds from ChEMBL document CHEMBL5042538 (J Med Chem, 2022).

Data set [1] in a line: Time dependent inhibition of human CYP3A in human liver microsomes using midazolam as substrate preincubated for 30 mins in presence of NADPH-generating system followed by substrate addition incubated for 10 mins by LC-MS/MS analysis. It counts as ADME. In general terms: Liver microsomes are vesicles of endoplasmic reticulum, rich in cytochrome P450 enzymes.
Data set [2] is described as follows: Inactivation of CYP3A in human liver microsomes at 0.25 uM using midazolam as substrate in presence of NADPH generating system and catalase. It counts as ADME.
The target in data set [3] is T1, CYP3A4 (Homo sapiens, UniProt P08684). As to the kind of experiment: Ratio of IC50 for time dependent inhibition of recombinant human CYP3A4 incubated for 30 mins by LC-MS/MS analysis to IC50 for time dependent inhibition of recombinant human CYP3A4 using midazolam as substrate preincubated for 30 mins in presence of NADPH-generating system followed by substrate addition further incubated for 30 mins by LC-MS/MS analysis. Conditions: recombinant human CYP3A4, probe midazolam, read-out: Ratio IC50; call rule not given here.
T1 sequence (P08684 whole entry): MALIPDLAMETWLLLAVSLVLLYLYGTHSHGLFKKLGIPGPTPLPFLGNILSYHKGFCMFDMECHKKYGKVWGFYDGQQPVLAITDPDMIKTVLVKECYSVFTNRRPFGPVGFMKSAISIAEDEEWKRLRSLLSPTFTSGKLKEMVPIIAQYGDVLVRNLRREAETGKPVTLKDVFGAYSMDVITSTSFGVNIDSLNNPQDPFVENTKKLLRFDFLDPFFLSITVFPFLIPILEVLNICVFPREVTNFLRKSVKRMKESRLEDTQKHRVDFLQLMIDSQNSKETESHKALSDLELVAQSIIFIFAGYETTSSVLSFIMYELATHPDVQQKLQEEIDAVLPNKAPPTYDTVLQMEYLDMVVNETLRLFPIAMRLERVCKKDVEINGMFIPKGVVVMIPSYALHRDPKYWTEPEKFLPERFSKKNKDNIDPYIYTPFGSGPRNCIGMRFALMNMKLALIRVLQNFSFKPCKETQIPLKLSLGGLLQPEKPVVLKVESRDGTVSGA

Data set [4] concerns CYP3A. As to the kind of experiment: Ratio of IC50 for time dependent inhibition of CYP3A in human liver microsomes incubated for 30 mins by LC-MS/MS analysis to IC50 for time dependent inhibition of CYP3A in human liver microsomes using midazolam as substrate preincubated for 30 mins in presence of NADPH-generating system followed by substrate addition further incubated for 30 mins by LC-MS/MS analysis. Conditions: probe midazolam, read-out: Ratio IC50.

For data set [5], the target named is T2, Cytochrome P450 3A4 (Homo sapiens, UniProt P08684). As to the kind of experiment: Inactivation of recombinant human CYP3A4 assessed as partition ratio in presence of NADPH-generating system. The class given is ADME. Conditions: recombinant enzyme.
T2 sequence (P08684 whole entry): as above
Data set [6] has as its target T3, Cytochrome P450 3A5 (Homo sapiens, UniProt P20815). As to the kind of experiment: Time dependent inhibition of recombinant human CYP3A5 using midazolam as substrate preincubated for 30 mins in presence of NADPH generating system followed by substrate addition incubated for 30 mins by LC-MS/MS analysis. It counts as ADME.
Data set [7] in a line: Time dependent inhibition of CYP3A in human liver microsomes incubated for 30 mins in presence of NADPH generating system by LC-MS/MS analysis. The class given is ADME.
Data set [8] can be described thus: Time dependent inhibition of CYP3A in human liver microsomes using midazolam as substrate preincubated for 30 mins in presence of NADPH generating system followed by substrate addition incubated for 30 mins by LC-MS/MS analysi. The class given is ADME.
In data set [9] the target is T2, Cytochrome P450 3A4. As to the kind of experiment: Time dependent inhibition of recombinant human CYP3A4 incubated for 30 mins in presence of NADPH generating system by LC-MS/MS analysis. It counts as ADME.
Data set [10] deals with T3, Cytochrome P450 3A5. As to the kind of experiment: Time dependent inhibition of recombinant human CYP3A5 incubated for 30 mins in presence of NADPH generating system by LC-MS/MS analysis. The class given is ADME.
For data set [11], the target named is T4, Cytochrome P450 3A7 (Homo sapiens, UniProt P24462). As to the kind of experiment: Time dependent inhibition of recombinant human CYP3A7 incubated for 30 mins in presence of NADPH generating system by LC-MS/MS analysis. It counts as ADME.
T4 sequence (P24462 whole entry): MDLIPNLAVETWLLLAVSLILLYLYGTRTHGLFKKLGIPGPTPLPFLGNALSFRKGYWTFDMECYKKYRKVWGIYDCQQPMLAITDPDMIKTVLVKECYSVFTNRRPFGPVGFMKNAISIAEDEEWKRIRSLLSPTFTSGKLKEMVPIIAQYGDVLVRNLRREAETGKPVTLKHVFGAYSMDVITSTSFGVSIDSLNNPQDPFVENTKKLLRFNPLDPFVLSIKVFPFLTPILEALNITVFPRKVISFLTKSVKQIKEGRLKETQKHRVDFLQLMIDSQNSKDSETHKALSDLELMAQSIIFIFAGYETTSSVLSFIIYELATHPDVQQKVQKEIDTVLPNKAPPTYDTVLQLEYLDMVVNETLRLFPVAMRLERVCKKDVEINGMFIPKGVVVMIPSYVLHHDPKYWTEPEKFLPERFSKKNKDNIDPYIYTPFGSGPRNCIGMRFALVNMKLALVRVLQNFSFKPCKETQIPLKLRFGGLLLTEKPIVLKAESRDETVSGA
Data set [12] has as its target T2, Cytochrome P450 3A4. As to the kind of experiment: Time dependent inhibition of recombinant human CYP3A4 using midazolam as substrate preincubated for 30 mins in presence of NADPH generating system followed by substrate addition incubated for 30 mins by LC-MS/MS analysi. It counts as ADME.
In data set [13] the target is T4, Cytochrome P450 3A7. As to the kind of experiment: Time dependent inhibition of recombinant human CYP3A7 using midazolam as substrate preincubated for 30 mins in presence of NADPH generating system followed by substrate addition incubated for 30 mins by LC-MS/MS analysi. It counts as ADME.
A short description of data set [14]: Inactivation of CYP3A in human liver microsomes at 0.25 uM using midazolam as substrate in presence of NADPH generating system and mannitol. The class given is ADME.
Data set [15] concerns the target CYP3A5 (Homo sapiens, UniProt P20815). As to the kind of experiment: Ratio of IC50 for time dependent inhibition of recombinant human CYP3A5 incubated for 30 mins by LC-MS/MS analysis to IC50 for time dependent inhibition of recombinant human CYP3A5 using midazolam as substrate preincubated for 30 mins in presence of NADPH-generating system followed by substrate addition further incubated for 30 mins by LC-MS/MS analysis. Conditions: recombinant human CYP3A5, probe midazolam, read-out: Ratio IC50.

Data set [16] can be described thus: Inactivation of CYP3A in human liver microsomes at 0.25 uM using midazolam as substrate in presence of NADPH generating system and super oxide dismutase. The class given is ADME.
Data set [17] in a line: Inactivation of CYP3A in human liver microsomes at 0.25 uM using midazolam as substrate in presence of NADPH generating system and ferric cyanide. The class given is ADME.
Data set [18] has as its target CYP3A7 (Homo sapiens, UniProt P24462). As to the kind of experiment: Ratio of IC50 for time dependent inhibition of recombinant human CYP3A7 incubated for 30 mins by LC-MS/MS analysis to IC50 for time dependent inhibition of recombinant human CYP3A7 using midazolam as substrate preincubated for 30 mins in presence of NADPH-generating system followed by substrate addition further incubated for 30 mins by LC-MS/MS analysis. Conditions: recombinant human CYP3A7, probe midazolam, read-out: Ratio IC50.

In data set [19] the test system is CYP3A. As to the kind of experiment: Inactivation of CYP3A in human liver microsomes using midazolam as substrate assessed as enzyme remaining activity in presence of glutathione. Conditions: probe midazolam, read-out: INH. It counts as ADME.
Data set [20] can be described thus: Inhibition of CYP3A in human liver microsomes at 2.5 uM using Nifedipine as substrate at 10 to 20 fold excess concentration preincubated for 5 mins followed by beta-NADP addition and measured upto 12 mins. Conditions: 0.2 h, time <=17 min. It counts as ADME.
Data set [21] in a line: Inhibition of CYP3A in human liver microsomes at 2.5 uM using de-oxyschizandrin as substrate at 10 to 20 fold excess concentration preincubated for 5 mins followed by beta-NADP addition and measured upto 12 mins. The class given is ADME. Conditions: 0.2 h, time <=17 min.
Data set [22] has as its target T1, CYP3A4. As to the kind of experiment: Time dependent inhibition of CYP3A4 in human liver microsomes assessed as enzyme remaining activity at 2.5 uM using midazolam as substrate preincubated for 30 mins in presence of NADPH-generating system relative to control. It counts as ADME. Conditions: probe midazolam, read-out: TDI.
The target of data set [23] is T1, CYP3A4. As to the kind of experiment: Time dependent inhibition of recombinant human CYP3A4 assessed as enzyme remaining activity at 2.5 uM using midazolam as substrate preincubated for 30 mins in presence of NADPH-generating system relative to control. It counts as ADME. Conditions: recombinant human CYP3A4, probe midazolam, read-out: TDI.
Data set [24] deals with CYP3A4. As to the kind of experiment: Time dependent inhibition of CYP3A4 in human liver microsomes assessed as enzyme remaining activity at 2.5 uM using midazolam as substrate incubated for 30 mins relative to control. It counts as ADME. Conditions: probe midazolam, read-out: TDI.
In data set [25] the target is T1, CYP3A4. As to the kind of experiment: Time dependent inhibition of recombinant human CYP3A4 assessed as enzyme remaining activity at 2.5 uM using midazolam as substrate incubated for 30 mins relative to control. The class given is ADME. Conditions: recombinant human CYP3A4, probe midazolam, read-out: TDI.
The target in data set [26] is T2, Cytochrome P450 3A4. As to the kind of experiment: Inactivation of CYP3A4 in human liver microsomes assessed as inhibition constant using midazolam as substrate preincubated for 5 mins followed by beta-NADP addition for 15 mins and midazolam addition after 10 mins in presence of NADPH-generating system by LC-MS/MS analysis. The class given is ADME.
The target in data set [27] is T2, Cytochrome P450 3A4. As to the kind of experiment: Inactivation of recombinant human CYP3A4 assessed as inhibition constant using midazolam as substrate preincubated for 5 mins followed by beta-NADP addition for 15 mins and midazolam addition after 10 mins in presence of NADPH-generating system by LC-MS/MS analysis. The class given is ADME.
For data set [28], the target named is T1, CYP3A4. As to the kind of experiment: Inactivation of CYP3A4 in human liver microsomes assessed as inactivation constant using midazolam as substrate preincubated for 5 mins followed by beta-NADP addition for 15 mins and midazolam addition after 10 mins in presence of NADPH-generating system by LC-MS/MS analysis. It counts as ADME. Conditions: probe midazolam, time 30 min.

The target in data set [29] is T1, CYP3A4. As to the kind of experiment: Inactivation of recombinant human CYP3A4 assessed as inactivation constant using midazolam as substrate preincubated for 5 mins followed by beta-NADP addition for 15 mins and midazolam addition after 10 mins in presence of NADPH-generating system by LC-MS/MS analysis. The class given is ADME. Conditions: recombinant human CYP3A4, probe midazolam, time 30 min.

Data set [30] deals with T1, CYP3A4. As to the kind of experiment: Inactivation of recombinant human CYP3A4 at 0.1 uM for 10 mins relative to control. The class given is ADME.
In data set [31] the target is T2, Cytochrome P450 3A4. As to the kind of experiment: Drug metabolism assessed as human CYP3A4-mediated M1 metabolite formation at 7.32 mins in presence of NADPH generating system by LC-MS/MS analysis. It counts as ADME. Conditions: recombinant enzyme, 0.122 h.
The target of data set [32] is T2, Cytochrome P450 3A4. As to the kind of experiment: Drug metabolism assessed as human CYP3A4-mediated M2 metabolite formation at 7.80 mins in presence of NADPH generating system by LC-MS/MS analysis. The class given is ADME. Conditions: recombinant enzyme, 0.13 h, time 7.8 min.
Data set [33] can be described thus: Drug metabolism assessed as human CYP2D6-mediated M1 metabolite formation at 7.32 mins in presence of NADPH generating system by LC-MS/MS analysis. It counts as ADME. Conditions: recombinant enzyme, 0.122 h.
Data set [34] is described as follows: Drug metabolism assessed as human CYP2D6-mediated M2 metabolite formation at 7.80 mins in presence of NADPH generating system by LC-MS/MS analysis. It counts as ADME. Conditions: recombinant enzyme, 0.13 h, time 7.8 min.
The subject of data set [35] is CYP3A. As to the kind of experiment: Inhibition of CYP3A in human liver microsomes at 1 uM using midazolam as substrate incubated for 10 mins relative to control. The class given is ADME. Conditions: probe midazolam.
In data set [36] the test system is CYP3A. As to the kind of experiment: Time dependent inhibition of CYP3A in human liver microsomes assessed as enzyme remaining activity at 10 uM using N-ethyl-1,8-naphthalimide as substrate preincubated for 30 mins in presence of NADPH generating system followed by substrate addition and incubated for 10 mins by microplate reader analysis relative to control. The class given is ADME. Conditions: probe N-ethyl-1,8-naphthalimide, time 40 min, read-out: TDI.

Data set [37] deals with CYP3A. As to the kind of experiment: Inhibition of CYP3A in human liver microsomes at 10 uM using midazolam as substrate incubated for 10 mins relative to control. It counts as ADME. Conditions: probe midazolam.

T3 sequence (P20815 whole entry): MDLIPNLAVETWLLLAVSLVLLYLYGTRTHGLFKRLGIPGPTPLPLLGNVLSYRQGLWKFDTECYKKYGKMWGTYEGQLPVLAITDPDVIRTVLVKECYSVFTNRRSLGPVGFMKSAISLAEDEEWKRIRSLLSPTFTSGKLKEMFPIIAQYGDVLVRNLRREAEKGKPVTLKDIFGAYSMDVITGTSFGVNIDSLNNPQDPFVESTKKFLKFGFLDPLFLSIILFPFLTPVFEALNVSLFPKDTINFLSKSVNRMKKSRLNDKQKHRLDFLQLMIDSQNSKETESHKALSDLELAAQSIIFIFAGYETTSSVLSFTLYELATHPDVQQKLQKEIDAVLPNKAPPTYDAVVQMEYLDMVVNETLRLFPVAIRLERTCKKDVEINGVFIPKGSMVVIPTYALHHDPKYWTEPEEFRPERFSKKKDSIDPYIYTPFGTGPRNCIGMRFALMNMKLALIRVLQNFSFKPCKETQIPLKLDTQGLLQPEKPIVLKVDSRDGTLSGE
Sequence of CYP3A7 (P24462 whole entry): as the sequence (P24462 whole entry) above
Sequence of CYP3A5 (P20815 whole entry): as the sequence (P20815 whole entry) above

In general, IC50 refers to the concentration that gives 50% inhibition. The term kinact denotes the rate constant of inactivation at saturating inhibitor. A word on the inhibition: it is the percentage by which the read-out fell short of the control. Consider `C[C@]12CCC(=O)C[C@H]1CC[C@@H]1[C@@H]2CC[C@]2(C)[C@@H](c3ccc(=O)oc3)CC[C@]12O`, for which the IC50 in data set [1] worked out at 30 nM; in [6] it was 2340 nM; in [7], 370 nM; in data set [8], 450 nM; in data set [9], 1560 nM; in data set [10], 5490 nM. In addition, the IC50 came out at 10800 nM in [11], 90 nM in [12] and 64800 nM in data set [13]. The “inhibition (INH)” value is recorded as “Active” in data set [2]; “Active” in data set [14]; “Active” in [16]; “Active” in data set [17]; “Not Active” in [20]; “Not Active” in data set [21]. For the same compound, the IC50 shift at 0.5 h came out at 17.3 in data set [3], 12.3 in data set [4], 5.87 in data set [15] and 17.5 in data set [18]. Also, the Ratio in data set [5] stood at 0.75. In addition, in data set [19], the activity is 43.8%. Also, the activity at 30 min, 2.5 µM in data set [22] is 19.7%; in data set [23], 11.9%. In addition, the activity at 0.5 h, 2.5 µM in data set [24] is 72.5%; in data set [25] it was 81.2%. Further, the Ki in data set [26] came out at 660 nM; in data set [27] it was 250 nM. Further, the values for the kinact in data set [28] and in data set [29] were 0.00107 s⁻¹ and 0.00268 s⁻¹, respectively. Moreover, in [30], the inhibition at 10 min, 0.1 µM turned out to be 50%. In addition, the Drug metabolism entry in data set [31], in [32], in [33] and in data set [34] was “Metabolite_Detected” in each case. The inhibition at 10 min, 1 µM in [35] stood at 49%.
Consider `CC(=O)O[C@H]1[C@H]2O[C@]23[C@@H]2CC[C@@H]4CC(=O)CC[C@]4(C)[C@H]2CC[C@]3(C)[C@H]1c1ccc(=O)oc1`, for which the IC50 shift at 0.5 h in data set [4] is 24.8. The IC50 in data set [7] is 13400 nM; in [8], 540 nM.
Taken in the same sequence, the figures for `C[C@]12CCC(=O)C[C@H]1CC[C@@H]1[C@@H]2CC[C@]2(C)[C@@H](c3ccc(=O)oc3)C[C@H]3O[C@]132` were 11.4, 5930 nM and 520 nM.
For `C[C@]12CC[C@H](O)C[C@H]1CC[C@@H]1[C@@H]2CC[C@]2(C)[C@@H](c3ccc(=O)oc3)CC[C@]12O` [BUFALIN], the activity at 10 min, 10 µM in data set [36] came to 6.81%. The IC50 in data set [7] is 11400 nM; in data set [8] it was 740 nM. In [37], this compound gave an inhibition at 10 min, 10 µM of 53%.
